Data set [1] deals with A2058 human melanoma cells. As to the kind of experiment: in vitro cytostatic (antiproliferative) activity, Alamar Blue (resazurin) assay, A2058. The data set is classed as cell-based. As for the experimental part:
(§1) For the evaluation of the in vitro antiproliferative activity of the compounds, the cell viability was determined by resazurin (Alamar Blue) assay on MDA-MB 231 breast carcinoma, A2058 melanoma, and HT-29 colon carcinoma cell culture. The control wells were treated only with serum-free medium.
(§2) The cytostatic effect of the compounds was studied on tumor cell cultures in vitro. MDA-MB-231 human breast adenocarcinoma cells were cultured in DMEM medium supplemented with 10% FBS, 2 mM L-glutamine, penicillin–streptomycin antibiotics mixture (50 IU/mL, and 50 μg/mL, respectively), 1 mM sodium pyruvate, and 1% non-essential amino acid mixture. A2058 human melanoma cells, and HT-29 colorectal carcinoma cells were cultured in RPMI medium supplemented with 10% FBS, 2 mM L-glutamine, and penicillin–streptomycin antibiotics mixture (50 IU/mL and 50 μg/mL, respectively). Cell lines were generous gifts from Dr. József Tóvári (Department of Experimental Pharmacology, National Institute of Oncology, Budapest, Hungary).
(§3) All cell cultures were maintained at 37 °C in a humidified atmosphere with 5% CO2. The cells were grown to confluence and then divided into 96-well tissue culture plates with the initial cell number of 5.0 × 10^3 cells/well. […] Control cells were treated with serum-free medium or DMSO (c = 1.0 v/v %) at the same conditions. After this incubation period, cells were washed twice with serum-free medium, and following that, they were cultured for another 72 h in a 10% serum-containing medium at 37 °C. After that, cell viability was determined using the Alamar Blue assay. Alamar Blue is a non-toxic, resazurin-based dye that living cells reduce to a fluorescent molecule, resorufin [99]. Resazurin sodium salt (Merck, Darmstadt, Germany) was dissolved in PBS at c = 0.15 mg/mL, pH 7.4). A measure of 22 uL of the dye was added to each well and incubated at 37 °C for 3 h until the pink color of the reduced dye appeared. Fluorescence intensity in each well was measured using a Synergy H4 multimode microplate reader (BioTek, Winooski, VT); at λex = 530/30 and λem = 610/10 nm.
(§4) The cytostasis values were expressed in the percentage of untreated control.

In data set [2] the test system is MDA-MB-231 human breast adenocarcinoma cells. As to the kind of experiment: in vitro cytostatic (antiproliferative) activity, Alamar Blue (resazurin) assay, MDA-MB 231. The data set is classed as cell-based. As to the method: as §1, §2, §3, §4
Background: Resazurin is reduced to fluorescent resorufin, in cell work by metabolically active cells.

Data set [3] concerns Vero E6 non-tumorous kidney cells. Nature of the data set: selectivity study: cytostatic activity on non-tumorous Vero E6 cells, Alamar Blue assay. The data set is classed as cell-based, African green monkey (C. sabaeus). As for the experimental part: (§5) To determine the selectivity, we assessed the compounds on the Vero E6 non-tumorous kidney cells from African green monkeys (C. sabaeus), and their cytostatic activity was determined (Table 3).
(§6) For the selectivity study, a non-human primate cell culture was used. Vero E6 cells were established from kidney tissue sampled from an African green monkey (C. sabaeus) They originated from a primary culture initiated in March 1962 by Yoshihiro Yasumura at Chiba University in Japan. Vero E6 cells were obtained from the European Collection of Authenticated Cell Cultures (ECACC 85020206) and maintained in DMEM high-glucose (4.5 g/L) medium (Lonza, Basel, Switzerland) containing 10% FBS (Gibco, Thermo Fisher Scientific) and supplemented with 2 mM of L-glutamine (Lonza), 1 mM sodium pyruvate (Merck), and CellCultureGuard (PanReacApplichem, ITW Reagents, Darmstadt, Germany) at 37 °C in a humidified atmosphere of 5% CO2.
as §3, §4

The test system of data set [4] is HT-29 colorectal carcinoma cells. Nature of the data set: in vitro cytostatic (antiproliferative) activity, Alamar Blue (resazurin) assay, HT-29. Format: cell-based. The following applies: Homo sapiens. As for the experimental part: as §1, §2, §3, §4
Data set [5] relates to MDA-MB 231, A2058, HT-29 and Vero E6 cells. As to the kind of experiment: in vitro cytostasis, Alamar Blue assay, cell lines taken together. The data set is classed as cell-based. Particulars: for effect on the tumor cell lines: tumor cell lines (MDA-MB 231, A2058, HT-29). As to the method:
as §1, §5, §2, §6, §3, §4

The nature of data set [6]: PAMPA-GI (parallel artificial membrane permeability assay, phosphatidylcholine membrane). Particulars: for logPe PAMPA-GI (n = 9): donor pH 6.8, acceptor pH 7.4, 37 °C, 4 h, n.d. = not detected in the acceptor phase. Format: in vitro ADME. As to the method: (§7) For the PAMPA-BBB test, 5 μL of porcine polar brain lipid extract (PBLE) solution (16.0 mg PBLE + 8.0 mg cholesterol dissolved in 600.0 μL n-dodecane) was applied for each well of the 96-well polycarbonate-based filter donor plates (top plate) (Multiscreen™-IP, MAIPN4510, pore size 0.45 μm; Merck). For the PAMPA-GI assay, the wells of the top plate were coated with 5 μL of the mixture of 16.0 mg phosphatidylcholine + 8.0 mg cholesterol dissolved in 600.0 μL n-dodecane. A measure of 150.0 μL of aliquots of the filtrated donor solutions were placed on the membrane. The 96-well PTFE acceptor plates (bottom plates) (Multiscreen Acceptor Plate, MSSACCEPTOR; Merck), were filled with 300.0 μL buffer solution (0.01 M PBS buffer, pH 7.4). The donor plate was placed upon the acceptor plate, and both plates were incubated together at 37 °C for 4 h in a Heidolph Titramax 1000 Vibrating platform shaker (Heidolph, Schwabach, Germany).
(§8) After incubation, sandwich plates were separated and the concentrations of each compound in the starting donor solution and in the acceptor and donor wells were determined in triplicate by UHPLC-DAD method described above. […] The effective permeability and the membrane retention in the PAMPA-BBB and the PAMPA GI experiments were calculated by Equations (4)–(7), respectively:(4) Pe=−2.303/A(t−τSS)·VA·VD/VA+VD·lg1−VA+VD/1−MR·VD×CAt/CD0 (5) Pe=−2.303/A(t−τSS)·1/1+ra·lg−ra+1+ra/1−MR×CDt/CD0 where Pe is the effective permeability coefficient (cm/s), A is the filter area (0.24 cm^2), VD and VA are the volumes in the donor (0.15 cm^3) and acceptor phases (0.30 cm^3), t is the incubation time (s), τSS is the time (s) to reach steady-state (240 s), CD(t) is the concentration (mol/cm^3) of the compound in the donor phase at time t, CD(0) is the concentration (mol/cm^3) of the compound in the donor phase at time 0, and MR is the estimated membrane retention factor (the estimated mole fraction of solute lost to the membrane), ra is the sink asymmetry ratio (gradient-pH-induced), defined as:(6) ra=VD/VA×Pe(A→D)/Pe(D→A) (7) MR=1−CDt/CD0−VA/VDCAt/CD0
(§9) All experiments were performed in three triplicates on three consecutive days (n = 9), caffeine standard was used as positive, while rutin as negative control. ClogP values were calculated by ChemAxon Marvin 22.3.
For orientation: PAMPA measures passive passage across an artificial lipid membrane.

A short description of data set [7]: PAMPA-BBB (parallel artificial membrane permeability assay, porcine polar brain lipid extract). Particulars: for logPe PAMPA-BBB (n = 9): donor pH 7.4, acceptor pH 7.4, 37 °C, 4 h, n.d. = not detected in the acceptor phase. Format: in vitro ADME. As to the method: as §7, §8, §9
The mark [8] stands for this setting: in vitro cytostatic activity, Alamar Blue (resazurin) assay, A2058 melanoma cell culture, read-out: IC50 (µM) A2058.
Setting [9] is: in vitro cytostatic activity, Alamar Blue (resazurin) assay, MDA-MB 231 breast carcinoma cell culture, read-out: IC50 (µM) MDA-MB 231.
[10] abbreviates: Chlorocebus sabaeus, Vero C1008, in vitro cytostatic activity, Alamar Blue assay, Vero E6 non-tumorous kidney cells, read-out: IC50 (µM) VERO E6 Non Tumorous.
Setting [11] is: in vitro cytostatic activity, Alamar Blue (resazurin) assay, HT-29 colon carcinoma cell culture, read-out: IC50 (µM) HT-29.
Setting [12] is: A2058, read-out: IC50 (µM) A2058.
Where [13] appears, read: MDA-MB-231, read-out: IC50 (µM) MDA-MB 231.
Setting [14] is: Chlorocebus sabaeus, Vero C1008, read-out: IC50 (µM) VERO E6 Non Tumorous.
Where [15] appears, read: HT-29, read-out: IC50 (µM) HT-29.

Where two headings read alike, the source gives them in different places.

With `O=c1c(OC2OCC(O)C(O)C2O)c(-c2ccc(O)c(O)c2)oc2cc(O)cc(O)c12` (centres unmarked) [quercetin-3-O-xyloside (74)], the IC50 in data set [1] (setting [8]), in data set [2] (setting [9]), in data set [3] (setting [10]) and in data set [4] (setting [11]) was more than 100 µM in each case.
Regarding `COc1cccc2c1C(=O)c1c(O)c3c(c(O)c1C2=O)C[C@@](O)(C(C)=O)C[C@@H]3O[C@H]1C[C@H](N)[C@H](O)[C@H](C)O1` [Daunomycin, daunomycin, reference compound], the IC50 in data set [5] (read-out: IC50 value (50% inhibition) in all cell lines) was 0.2 to 1.1 µM; in data set [1] (setting [12]), 0.9 ± 0.1 µM; in data set [2] (setting [13]), 0.7 ± 0.1 µM; in data set [3] (setting [14]), 1.1 ± 0.05 µM; in data set [4] (setting [15]), 0.2 ± 0.05 µM.
Take `O=C(OCC1OC(OC2CCC(=O)c3ccc(O)c(O)c32)C(O)C(O)C1O)c1cc(O)c(O)c(O)c1` [Compound 92, 1,2,3,4-tetrahydro-7,8-dihydroxy-4-oxonaphthalen-1-yl-6-O-[(3,4,5-trihydroxyphenyl)carbonyl]-β-D-glucopyranoside]: in data set [5], the “effect on the tumor cell lines” value was “no effect”. Besides, in data set [6], the “logPe PAMPA-GI (n = 9)” value is listed as “not detected in the acceptor phase”. Moreover, the 50% inhibitory concentration (IC50) in data set [1] (setting [8]) was more than 100 µM; in data set [2] (setting [9]) it was more than 100 µM; in data set [3] (setting [10]), 61.1 ± 5.3 µM; in data set [4] (setting [11]) it was more than 100 µM. The “logPe PAMPA-BBB (n = 9)” value in data set [7] is “not detected in the acceptor phase”.
Turning to `O=C(O)c1cc(O)c(O)c(O)c1` [Compound 14, gallic acid], in data set [6], the “logPe PAMPA-GI (n = 9)” value is on record as “not detected in the acceptor phase”. Also, the half-inhibitory concentration (IC50) in data set [1] (setting [8]) turned out to be 57.2 ± 4.7 µM; in data set [2] (setting [9]), 49.8 ± 3.5 µM; in data set [3] (setting [10]), 49.9 ± 2.8 µM; in data set [4] (setting [11]), 71.2 ± 7.9 µM. Besides, the “logPe PAMPA-BBB (n = 9)” value in data set [7] is “not detected in the acceptor phase”.
Turning to `O=c1oc2c(O)c(O)cc3c(=O)oc4c(O)c(O)cc1c4c23` [Compound 143, ellagic acid], the Papp at 4 h, 100 µM in data set [6] (PAMPA, read-out: logPe PAMPA-GI (n = 9) (converted)) was 0.741 ×10⁻⁶ cm/s; in data set [7] (pig, PAMPA, pH 7.4, read-out: logPe PAMPA-BBB (n = 9) (converted)), 0.224 ×10⁻⁶ cm/s. In addition, the “logPe PAMPA-GI (n = 9)” value in data set [6] is recorded as “less than −6.0”. The IC50 was more than 100 µM in data set [1] (setting [8]); more than 100 µM in data set [2] (setting [9]); more than 100 µM in data set [3] (setting [10]); 12.1 µM in data set [4] (HT-29 colon carcinoma, treatment overnight, then 72 h culture, Alamar Blue, read-out: IC50 on HT-29 cell culture); more than 100 µM in data set [4] (setting [11]). Besides, in data set [3] (Vero E6 non-tumorous kidney cells, selectivity), the “IC50 (cytostatic activity) on the Vero E6 cells” value is listed as “not cytostatic”. Further, in data set [7], the “logPe PAMPA-BBB (n = 9)” value is “less than −6.0”. Also, the inhibition at 100 µM in data set [4] (read-out: % inhibition at 100 µM, 100 µM, HT-29 cell culture) came out at 33%.
Regarding “myricetin-3-O-rhamnoside (myricitrin) [Compound 86]”, in data set [5], the “effect on the tumor cell lines” value is “no effect”. The IC50 in data set [3] (Vero E6 non-tumorous kidney cells, selectivity, read-out: IC50 (cytostatic activity) on the Vero E6 cells) turned out to be 3.7 µM.
Regarding `CC1OC(Oc2c(-c3ccc(O)c(O)c3)oc3cc(O)cc(O)c3c2=O)C(O)C(O)C1O` (centres unmarked) [Compound 106, quercetin-3-O-rhamnoside (quercitrin)], the “effect on the tumor cell lines” value in data set [5] is given as “no effect”. Moreover, in data set [6], the “logPe PAMPA-GI (n = 9)” value is on record as “not detected in the acceptor phase”. Also, the IC50 in data set [3] (Chlorocebus sabaeus, Vero C1008, read-out: IC50 (cytostatic activity) on the Vero E6 cells) turned out to be 15.9 µM. In addition, the “logPe PAMPA-BBB (n = 9)” value in data set [7] is “not detected in the acceptor phase”.
`CC1OC(Oc2c(-c3ccc(O)c(O)c3)oc3cc(O)cc(O)c3c2=O)C(O)C(O)C1O` (centres unmarked) [quercetin-3-O-rhamnoside (106)]: the half-inhibitory concentration (IC50) is more than 100 µM in data set [1] (setting [12]), more than 100 µM in data set [2] (setting [13]), 15.9 ± 0.7 µM in data set [3] (setting [14]) and more than 100 µM in data set [4] (setting [15]).
As to `CC1OC(Oc2c(-c3cc(O)c(O)c(O)c3)oc3cc(O)cc(O)c3c2=O)C(O)C(O)C1O` (centres unmarked) [myricetin-3-O-rhamnoside (86)], the half-inhibitory concentration (IC50) in data set [1] (setting [8]) was more than 100 µM; in data set [2] (setting [9]), more than 100 µM; in data set [3] (setting [10]), 3.7 ± 0.7 µM; in data set [4] (setting [11]) it was more than 100 µM.

The IC50 is the concentration that inhibits the measured activity by half. Usually inhibition stands for the relative decrease from the control value, in per cent.

Values taken from article PMC11241769, “Comprehensive Characterization of Phytochemical Composition, Membrane Permeability, and Antiproliferative Activity of Juglans nigra Polyphenols” (International Journal of Molecular Sciences, 2024).
